Assays:
[1] = molecular target: 3',5'-cyclic-AMP phosphodiesterase 4D (Homo sapiens, UniProt Q08499); assay: Inhibition of human PDE4D2 catalytic domain (86 to 413 residues) expressed in Escherichia coli strain BL21 using [3H]cAMP as substrate after 15 mins by liquid scintillation counter analysis
Homo sapiens [2] = species: Homo sapiens; assay: Selectivity ratio of IC50 for human PDE2A3 catalytic domain (222 to 904 residues) expressed in Escherichia coli strain BL21 to IC50 for human PDE4D2 catalytic domain (86 to 413 residues) expressed in Escherichia coli strain BL21
[3] = molecular target: cGMP-specific 3',5'-cyclic phosphodiesterase (Homo sapiens, UniProt O76074); assay: Inhibition of human PDE5A1 catalytic domain (535 to 860 residues) expressed in Escherichia coli strain BL21 using [3H]cAMP as substrate after 15 mins by liquid scintillation counter analysis
Homo sapiens [4] = species: Homo sapiens; assay: Selectivity ratio of IC50 for human PDE1B2 catalytic domain (10 to 487 residues) expressed in Escherichia coli strain BL21 to IC50 for human PDE4D2 catalytic domain (86 to 413 residues) expressed in Escherichia coli strain BL21
[5] = molecular target: Dual specificity calcium/calmodulin-dependent 3',5'-cyclic nucleotide phosphodiesterase 1B (Homo sapiens, UniProt Q01064); assay: Inhibition of human PDE1B2 catalytic domain (10 to 487 residues) expressed in Escherichia coli strain BL21 using [3H]cAMP as substrate after 15 mins by liquid scintillation counter analysis
Sequence of Dual specificity calcium/calmodulin-dependent 3',5'-cyclic nucleotide phosphodiesterase 1B (Q01064 whole entry, the tested form may be a part): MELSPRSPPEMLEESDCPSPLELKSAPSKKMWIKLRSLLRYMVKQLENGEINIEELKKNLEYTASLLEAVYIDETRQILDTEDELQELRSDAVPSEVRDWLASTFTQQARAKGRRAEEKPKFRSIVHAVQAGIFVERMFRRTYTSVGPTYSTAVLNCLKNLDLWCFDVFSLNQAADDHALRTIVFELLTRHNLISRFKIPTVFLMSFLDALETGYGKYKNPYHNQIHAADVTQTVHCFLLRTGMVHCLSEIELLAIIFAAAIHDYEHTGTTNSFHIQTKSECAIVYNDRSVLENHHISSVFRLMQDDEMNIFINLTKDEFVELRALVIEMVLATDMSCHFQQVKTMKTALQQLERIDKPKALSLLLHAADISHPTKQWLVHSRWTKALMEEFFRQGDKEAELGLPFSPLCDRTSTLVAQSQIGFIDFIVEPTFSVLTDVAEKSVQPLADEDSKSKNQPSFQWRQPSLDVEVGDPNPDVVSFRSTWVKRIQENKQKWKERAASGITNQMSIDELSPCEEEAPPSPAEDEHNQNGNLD

[6] = molecular target: High affinity cGMP-specific 3',5'-cyclic phosphodiesterase 9A (Homo sapiens, UniProt O76083); assay: Inhibition of human PDE9A2 catalytic domain (181 to 506 residues) expressed in Escherichia coli strain BL21 using [3H]cAMP as substrate after 15 mins by liquid scintillation counter analysis
Sequence of High affinity cGMP-specific 3',5'-cyclic phosphodiesterase 9A (O76083 whole entry, the tested form may be a part): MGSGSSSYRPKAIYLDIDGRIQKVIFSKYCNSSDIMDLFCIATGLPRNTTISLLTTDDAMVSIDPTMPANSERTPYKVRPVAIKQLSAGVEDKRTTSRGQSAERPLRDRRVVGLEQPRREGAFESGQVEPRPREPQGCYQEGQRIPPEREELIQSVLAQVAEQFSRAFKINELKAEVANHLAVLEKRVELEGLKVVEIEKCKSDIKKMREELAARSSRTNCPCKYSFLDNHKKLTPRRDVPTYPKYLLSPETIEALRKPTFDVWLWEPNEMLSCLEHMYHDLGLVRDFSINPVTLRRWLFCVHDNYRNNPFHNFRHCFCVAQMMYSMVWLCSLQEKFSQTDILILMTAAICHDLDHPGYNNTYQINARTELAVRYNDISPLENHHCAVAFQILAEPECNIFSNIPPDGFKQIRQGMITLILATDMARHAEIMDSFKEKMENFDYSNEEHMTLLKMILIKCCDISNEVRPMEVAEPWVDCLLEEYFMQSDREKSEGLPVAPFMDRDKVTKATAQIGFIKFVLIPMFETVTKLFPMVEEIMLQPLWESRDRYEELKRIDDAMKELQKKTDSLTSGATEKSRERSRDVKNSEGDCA

[7] = molecular target: cGMP-dependent 3',5'-cyclic phosphodiesterase (Homo sapiens, UniProt O00408); assay: Inhibition of human PDE2A3 catalytic domain (222 to 904 residues) expressed in Escherichia coli strain BL21 using [3H]cAMP as substrate after 15 mins by liquid scintillation counter analysis
Sequence of cGMP-dependent 3',5'-cyclic phosphodiesterase (O00408 whole entry, the tested form may be a part): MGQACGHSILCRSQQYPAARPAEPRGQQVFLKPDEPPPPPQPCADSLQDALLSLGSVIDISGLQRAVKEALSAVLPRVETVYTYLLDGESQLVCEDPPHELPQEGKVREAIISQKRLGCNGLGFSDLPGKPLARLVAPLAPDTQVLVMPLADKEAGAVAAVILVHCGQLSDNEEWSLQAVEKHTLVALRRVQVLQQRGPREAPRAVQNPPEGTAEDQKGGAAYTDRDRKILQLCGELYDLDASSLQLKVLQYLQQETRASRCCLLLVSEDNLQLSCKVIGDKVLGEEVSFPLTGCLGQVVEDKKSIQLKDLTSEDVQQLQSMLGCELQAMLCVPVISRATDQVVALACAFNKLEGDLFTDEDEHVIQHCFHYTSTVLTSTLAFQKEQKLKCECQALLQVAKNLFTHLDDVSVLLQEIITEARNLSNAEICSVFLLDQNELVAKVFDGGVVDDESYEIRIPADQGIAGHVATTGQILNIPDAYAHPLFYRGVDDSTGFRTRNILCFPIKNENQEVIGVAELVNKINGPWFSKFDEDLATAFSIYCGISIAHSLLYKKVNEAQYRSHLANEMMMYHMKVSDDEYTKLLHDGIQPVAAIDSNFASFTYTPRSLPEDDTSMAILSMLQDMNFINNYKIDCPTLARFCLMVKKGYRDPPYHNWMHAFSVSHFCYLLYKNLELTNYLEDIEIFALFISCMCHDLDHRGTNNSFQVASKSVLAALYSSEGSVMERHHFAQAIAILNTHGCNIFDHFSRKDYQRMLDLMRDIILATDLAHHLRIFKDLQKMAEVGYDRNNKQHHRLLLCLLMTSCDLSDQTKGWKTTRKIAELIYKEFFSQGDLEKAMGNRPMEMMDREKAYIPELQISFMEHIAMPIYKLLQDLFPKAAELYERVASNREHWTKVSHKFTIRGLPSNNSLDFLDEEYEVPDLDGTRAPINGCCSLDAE

Homo sapiens [8] = species: Homo sapiens; assay: Selectivity ratio of IC50 for human PDE10A2 catalytic domain (448 to 789 residues) expressed in Escherichia coli strain BL21 to IC50 for human PDE4D2 catalytic domain (86 to 413 residues) expressed in Escherichia coli strain BL21
[9] = molecular target: cAMP and cAMP-inhibited cGMP 3',5'-cyclic phosphodiesterase 10A (Homo sapiens, UniProt Q9Y233); assay: Inhibition of human PDE10A2 catalytic domain (448 to 789 residues) expressed in Escherichia coli strain BL21 using [3H]cAMP as substrate after 15 mins by liquid scintillation counter analysis
Sequence of cAMP and cAMP-inhibited cGMP 3',5'-cyclic phosphodiesterase 10A (Q9Y233 whole entry, the tested form may be a part): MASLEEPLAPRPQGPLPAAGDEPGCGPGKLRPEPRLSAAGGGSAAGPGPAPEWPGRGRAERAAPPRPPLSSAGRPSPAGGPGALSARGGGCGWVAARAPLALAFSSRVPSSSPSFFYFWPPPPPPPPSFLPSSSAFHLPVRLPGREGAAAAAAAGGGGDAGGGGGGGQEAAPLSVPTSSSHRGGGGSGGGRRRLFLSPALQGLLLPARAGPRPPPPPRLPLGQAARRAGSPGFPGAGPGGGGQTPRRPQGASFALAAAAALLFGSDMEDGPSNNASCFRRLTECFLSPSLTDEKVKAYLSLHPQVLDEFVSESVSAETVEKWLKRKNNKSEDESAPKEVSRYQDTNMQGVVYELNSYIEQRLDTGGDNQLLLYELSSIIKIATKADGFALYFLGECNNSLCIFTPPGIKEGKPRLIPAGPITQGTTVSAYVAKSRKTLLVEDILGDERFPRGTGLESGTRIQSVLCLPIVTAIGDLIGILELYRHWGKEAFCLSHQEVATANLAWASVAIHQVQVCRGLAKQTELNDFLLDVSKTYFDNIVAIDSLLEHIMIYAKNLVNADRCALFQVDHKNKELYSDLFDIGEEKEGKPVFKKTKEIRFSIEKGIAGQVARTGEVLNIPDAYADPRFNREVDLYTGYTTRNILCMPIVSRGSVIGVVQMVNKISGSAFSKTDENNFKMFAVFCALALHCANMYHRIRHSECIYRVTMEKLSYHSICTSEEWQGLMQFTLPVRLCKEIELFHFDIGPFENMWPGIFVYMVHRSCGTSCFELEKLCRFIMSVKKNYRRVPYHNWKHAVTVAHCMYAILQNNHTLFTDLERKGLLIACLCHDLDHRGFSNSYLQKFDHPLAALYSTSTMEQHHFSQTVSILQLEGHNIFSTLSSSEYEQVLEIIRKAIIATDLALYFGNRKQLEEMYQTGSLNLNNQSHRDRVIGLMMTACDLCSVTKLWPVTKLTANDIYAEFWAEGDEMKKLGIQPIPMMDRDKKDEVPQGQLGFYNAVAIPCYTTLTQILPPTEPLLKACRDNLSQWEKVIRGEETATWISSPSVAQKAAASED

Homo sapiens [10] = species: Homo sapiens; assay: Selectivity ratio of IC50 for human PDE9A2 catalytic domain (181 to 506 residues) expressed in Escherichia coli strain BL21 to IC50 for human PDE4D2 catalytic domain (86 to 413 residues) expressed in Escherichia coli strain BL21
Homo sapiens [11] = species: Homo sapiens; assay: Selectivity ratio of IC50 for human PDE5A1 catalytic domain (535 to 860 residues) expressed in Escherichia coli strain BL21 to IC50 for human PDE4D2 catalytic domain (86 to 413 residues) expressed in Escherichia coli strain BL21

Sequence of 3',5'-cyclic-AMP phosphodiesterase 4D (Q08499 whole entry, the tested form may be a part): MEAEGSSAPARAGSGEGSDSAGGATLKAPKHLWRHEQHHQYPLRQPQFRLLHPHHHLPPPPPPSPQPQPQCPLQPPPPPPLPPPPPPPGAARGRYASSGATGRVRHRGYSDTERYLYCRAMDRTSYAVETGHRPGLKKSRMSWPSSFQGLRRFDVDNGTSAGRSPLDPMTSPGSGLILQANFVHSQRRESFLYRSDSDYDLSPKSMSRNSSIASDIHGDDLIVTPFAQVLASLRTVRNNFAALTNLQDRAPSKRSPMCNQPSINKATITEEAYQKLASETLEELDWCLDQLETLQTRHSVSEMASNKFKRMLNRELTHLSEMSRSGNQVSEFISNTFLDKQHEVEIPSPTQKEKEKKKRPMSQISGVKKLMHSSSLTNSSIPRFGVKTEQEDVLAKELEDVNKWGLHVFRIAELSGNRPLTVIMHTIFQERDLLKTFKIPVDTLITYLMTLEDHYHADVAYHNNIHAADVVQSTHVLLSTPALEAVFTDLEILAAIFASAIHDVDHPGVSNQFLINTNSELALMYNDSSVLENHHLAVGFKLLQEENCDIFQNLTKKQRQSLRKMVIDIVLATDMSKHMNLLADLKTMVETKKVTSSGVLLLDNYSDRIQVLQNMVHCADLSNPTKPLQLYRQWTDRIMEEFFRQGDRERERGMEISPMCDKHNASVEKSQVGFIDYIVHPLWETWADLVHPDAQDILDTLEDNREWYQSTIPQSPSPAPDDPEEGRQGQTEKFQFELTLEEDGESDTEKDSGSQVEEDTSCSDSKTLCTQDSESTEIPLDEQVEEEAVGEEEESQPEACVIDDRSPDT

CC(C)=CCc1cc([C@@H]2CC(=O)c3c(O)cc(O)cc3O2)c(O)c(CC=C(C)C)c1O
IC50 [1]: 9900 nM

CC(C)=CCc1c(O)cc2oc(-c3ccc(O)cc3O)c(CC=C(C)C)c(=O)c2c1O [CUDRAFLAVONE C]
IC50 [1]: 260 nM

COC1CC(C)(C)Oc2cc(O)c3c(=O)c(CC=C(C)C)c(-c4ccc(O)cc4O)oc3c21 (stereo unspecified)
IC50 [1]: 20 nM

CC(C)C[C@H]1Oc2cc(O)ccc2-c2oc3c4c(cc(O)c3c(=O)c21)OC(C)(C)CC4
IC50 [1]: 4350 nM

C/C(C=O)=C\Cc1c(-c2ccc(O)cc2O)oc2c3c(cc(O)c2c1=O)OC(C)(C)C=C3
IC50 [1]: 9210 nM

CC1(C)C=Cc2c(ccc(-c3cc(=O)c4c(O)cc5c(c4o3)C=CC(C)(C)O5)c2O)O1
IC50 [1]: 30 nM

CC(C)C[C@@H]1Oc2cc(O)ccc2-c2oc3c4c(cc(O)c3c(=O)c21)OC(C)(C)CC4
IC50 [1]: 7500 nM

CC1(C)C=Cc2c(c3c(c4c(=O)cc(-c5ccc(O)cc5O)oc24)OC(C)(C)CC3)O1
IC50 [1]: 870 nM

CC(C)=CCc1c(-c2ccc(O)cc2O)oc2c(CC=C(C)C)c(O)cc(O)c2c1=O [KUWANON C]
IC50 [1]: 310 nM

CC(C)=C[C@H]1Oc2cc(O)ccc2-c2oc3c4c(cc(O)c3c(=O)c21)OC(C)(C)C=C4
Ratio IC50 (Homo sapiens [2]): 109
IC50 [1]: 5.4 nM
inhibition [1]: Dose-dependent effect
IC50 [3]: 410 nM
Ratio IC50 (Homo sapiens [4]): 55
IC50 [5]: 300 nM
IC50 [6]: 350 nM
IC50 [7]: 590 nM
Ratio IC50 (Homo sapiens [8]): 94
IC50 [9]: 510 nM
Ratio IC50 (Homo sapiens [10]): 65
Ratio IC50 (Homo sapiens [11]): 76

C=CC(C)(C)c1cc(-c2cc(=O)c3c(O)cc(O)cc3o2)c(O)cc1O
IC50 [1]: 1880 nM

CC(C)=CCCC1(C)C=Cc2cc(C3CC(=O)c4c(O)cc(O)cc4O3)c(O)cc2O1 (stereo unspecified)
IC50 [1]: 3590 nM

CC(C)=CCC/C(C)=C/Cc1cc([C@@H]2CC(=O)c3c(O)cc(O)cc3O2)c(O)cc1O
IC50 [1]: 1260 nM

CC(C)=CCc1c(-c2ccc(O)cc2O)oc2c3c(cc(O)c2c1=O)OC(C)(C)C=C3 [MORUSIN]
IC50 [1]: 900 nM

CC(=O)Oc1ccc2c(c1)O[C@H](C=C(C)C)c1c-2oc2c3c(cc(O)c2c1=O)OC(C)(C)C=C3
IC50 [1]: 4890 nM

CC(C)=CC1Oc2cc(O)ccc2-c2oc3cc(O)cc(O)c3c(=O)c21 (stereo unspecified)
IC50 [1]: 400 nM

COc1ccc2c(c1)O[C@@H](C=C(C)C)c1c-2oc2c3c(cc(O)c2c1=O)OC(C)(C)C=C3
IC50 [1]: 8600 nM

CC(C)=CCc1c(O)cc(O)c2c(=O)cc(-c3ccc(O)cc3)oc12
IC50 [1]: 630 nM

CC(C)=CCC/C(C)=C/Cc1c(O)c(CC=C(C)C)cc([C@@H]2CC(=O)c3c(O)cc(O)cc3O2)c1O
IC50 [1]: 2190 nM

CC(C)=C[C@@H]1Oc2cc(O)ccc2-c2oc3c4c(cc(O)c3c(=O)c21)OC(C)(C)C=C4
IC50 [1]: 250 nM
inhibition [1]: Dose-dependent effect

CC(C)=CCc1c(O)cc(O)c2c(=O)c3c(oc12)-c1ccc(O)cc1OC3C=C(C)C (stereo unspecified)
IC50 [1]: 40 nM

COc1ccc2c(c1)O[C@H](C=C(C)C)c1c-2oc2c3c(cc(O)c2c1=O)OC(C)(C)C=C3
IC50 [1]: 5180 nM

CC(C)=CCCC1(C)C=Cc2c(ccc(-c3oc4cc(O)cc(O)c4c(=O)c3CC=C(C)C)c2O)O1 (stereo unspecified)
IC50 [1]: 270 nM

CC(C)=CCC/C(C)=C/Cc1c(O)ccc([C@@H]2CC(=O)c3c(O)cc(O)cc3O2)c1O
IC50 [1]: 2330 nM

Reference: ChEMBL document CHEMBL4145464, “Prenylated flavonoids as potent phosphodiesterase-4 inhibitors from Morus alba: Isolation, modification, and structure-activity relationship study” (Eur J Med Chem, 2018)
